Source: US20110263642A1, “METHODS FOR TREATMENT OF MULTIPLE SCLEROSIS” (FibroGen, Inc., priority 2008, published 2011)

System: EAE animal model of multiple sclerosis
Experiment: EAE induced by MBP injection in Lewis rats, neurological disease scoring (first study, dosing day 3-21)
Assay type: in vivo
Conditions: for reduction in disease severity compared to vehicle-treated control EAE animals: day 3 to day 21 after MBP injection
Text: Experimental allergic encephalomyelitis (EAE, also referred to as experimental autoimmune encephalomyelitis) is currently the best animal model of human multiple sclerosis (MS). In this model, induction of EAE occurs following, for example, injection of spinal cord homogenate or central nervous system (CNS) antigens, such as myelin basic protein (MBP), myelin olidgodendrocyte glycoprotein, or proteolipid protein. Approximately 10 days following injection of CNS antigens, susceptible rats (e.g., Lewis rats) develop a progressive paralysis similar to that observed in humans.
Female Lewis rats of approximately 220 grams were used in this study (Janvier; Le Genest St Isle, France). Compounds of the invention were formulated in water containing 10% cremophor and 60 mM L-histidine to achieve a final concentration of either 2 mg/ml or 6 mg/ml. Dexamethasone was dissolved in saline at a concentration of 0.1 mg/ml.
Induction of EAE by injection with myelin basic protein (MBP) antigen was performed as follows. Prior to injection with the MBP antigen (day 0), rats were anaesthetized by injection of 60 mg/kg of ketamine (Imalgene500®, Rhone Mérieux, Lyon, France) plus 4 mg/kg of xylazine (Rompum 2%, Bayer Pharma, Kiel, Germany). Rats were then injected in the hind footpad with a total volume of 100 μl of MBP inoculum solution per paw containing 100 μg of MBP antigen (Sigma, L'Isle d'Abeau Chesnes, France) emulsified (1:1) containing incomplete Freund's adjuvant (IFA) (Sigma, L'Isle d'Abeau Chesnes, France) and 500 μg of heat-inactivated mycobacterium tuberculosis (strain H 37 RA from Difco). Control rats were similarly injected with an equivalent volume of inoculum without MBP. […]
Neurological scoring was performed daily from day 7 to day 21 following BP injection. […] Analysis of variance (ANOVA) was performed on data from the measured (clinical score) or the calculated (severity score) parameters. […]
Cumulative EAE disease score, used as a measure of overall disease severity, was determined by adding all disease/neurological scores for each animal over the time course of the experiment.

N#Cc1nc(C(=O)NCC(=O)O)c(O)c2c(Oc3ccccc3)cccc12 [Compound A, [(1-Cyano-4-hydroxy-5-phenoxy-isoquinoline-3-carbonyl)-amino]-acetic acid]
reduction in disease severity compared to vehicle-treated control EAE animals (10 mg/kg p.o. daily): 17%
reduction in disease severity compared to vehicle-treated control EAE animals (30 mg/kg p.o. daily, p<0.05): 46%
cumulative disease score (AUC) (either 10 mg/kg or 30 mg/kg p.o. daily, day 3-21, FIG. 2): reduced
